target: T1, small-conductance Ca2+-activated K+ channels (SK channels, subtype 2) (Homo sapiens, UniProt Q9H2S1); assay: whole-cell patch-clamp of ionic current through SK2 channels in HEK293 cells (SC100); type: cell-based; details: concentration that increases the basal current by 100%; HEK293 cells expressing SK2 channels
T1 construct: expressed in transfected cells; host or cells: HEK293
Method in brief: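 SC100, the concentration doubling basal current (a 100% increase), was taken from SK2 currents recorded by whole-cell patch-clamp in SK2-expressing HEK293 cells.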

| SMILES | SC100 |
| --- | --- |
| Cc1cc(C)n(-c2cc(OCc3ccc(F)cc3)cc(NC3CCC(F)(F)CC3)n2)n1 [Compound 263, N-(4,4-difluorocyclohexyl)-6-(3,5-dimethyl-1H-pyrazol-1-yl)-4-((4-fluorobenzyl)oxy)pyridin-2-amine] | ++ (++ means 200 nM-1000 nM) |
| Cc1cc(C)n(-c2nc(NC3CCC(F)(F)CC3)cc(-n3cccn3)n2)n1 [Compound 117, N-(4,4-difluorocyclohexyl)-2-(3,5-dimethyl-1H-pyrazol-1-yl)-6-(1H-pyrazol-1-yl)pyrimidin-4-amine] | ++ (++ means 200 nM-1000 nM) |
| Cc1cc(C)n(-c2nc(CO)cc(NC3CCCC(F)(F)C3)n2)n1 (stereo not drawn) [Compound 357, (6-((3,3-difluorocyclohexyl)amino)-2-(3,5-dimethyl-1H-pyrazol-1-yl)pyrimidin-4-yl)methanol] | + (+ means >1 uM) |
| FC1(F)CCC(Nc2cc(N3CCOCC3)nc(-c3nc(C(F)(F)F)cs3)n2)CC1 [Compound 332, N-(4,4-difluorocyclohexyl)-6-morpholino-2-(4-(trifluoromethyl)thiazol-2-yl)pyrimidin-4-amine] | ++ (++ means 200 nM-1000 nM) |
| O=C1CCCN1Cc1cc(NC2CCC(F)(F)CC2)nc(-n2ccc(CF)n2)n1 [Compound 321, 1-((6-((4,4-difluorocyclohexyl)amino)-2-(3-(fluoromethyl)-1H-pyrazol-1-yl)pyrimidin-4-yl)methyl)pyrrolidin-2-one] | + (+ means >1 uM) |
| Cc1csc(-c2nc(NC3CCC(F)(F)CC3)cc([C@H](C)O)n2)n1 (single isomer, unassigned) [Compound 363] | ++ (++ means 200 nM-1000 nM) |
| Cc1cc(NC2C[C@@H]3[C@H](C2)C3(F)F)nc(-n2ccc(C)n2)n1 (stereo partly drawn) [Compound 245, N-((1R,5S)-6,6-difluorobicyclo[3.1.0]hexan-3-yl)-6-methyl-2-(3-methyl-1H-pyrazol-1-yl)pyrimidin-4-amine] | + (+ means >1 uM) |
| Cc1cn(-c2nc(NC3CCC(F)(F)CC3)cc(OC3CN(C(=O)C(C)(C)C)C3)n2)nc1CF [Compound 309, 1-(3-((6-((4,4-difluorocyclohexyl)amino)-2-(3-(fluoromethyl)-4-methyl-1H-pyrazol-1-yl)pyrimidin-4-yl)oxy)azetidin-1-yl)-2,2-dimethylpropan-1-one] | ++ (++ means 200 nM-1000 nM) |
| COCc1cc(NC2CCC(F)(F)CC2)nc(-n2nc(C)cc2C)n1 [Compound 193] | + (+ means >1 uM) |

Other lines, results leading:

| SC100 | SMILES |
| --- | --- |
| + (+ means >1 uM) | Cc1cccc(-c2nc(C)cc(NC3CCC(F)(F)CC3)n2)n1 [Compound 224, N-(4,4-difluorocyclohexyl)-6-methyl-2-(6-methylpyridin-2-yl)pyrimidin-4-amine] |
| ++ (++ means 200 nM-1000 nM) | CC(=O)NCc1cc(NC2CCC(F)(F)CC2)nc(-n2cc(C)c(CF)n2)c1 [Compound 349, N-((2-((4,4-difluorocyclohexyl)amino)-6-(3-(fluoromethyl)-4-methyl-1H-pyrazol-1-yl)pyridin-4-yl)methyl)acetamide] |
| + (+ means >1 uM) | Cc1cc(C)n(-c2nc(CN3CCOCC3)cc(NC3CCC(F)(F)CC3)n2)n1 [Compound 176, N-(4,4-difluorocyclohexyl)-2-(3,5-dimethyl-1H-pyrazol-1-yl)-6-(morpholinomethyl)pyrimidin-4-amine] |
| + (+ means >1 uM) | CC(=O)NCc1cc(NC2CCC(F)(F)CC2)nc(-n2ccc(CF)n2)n1 [Compound 327, N-((6-((4,4-difluorocyclohexyl)amino)-2-(3-(fluoromethyl)-1H-pyrazol-1-yl)pyrimidin-4-yl)methyl)acetamide] |
| ++ (++ means 200 nM-1000 nM) | Cc1cc(C)n(-c2cc(C(N)=O)cc(NC3CCC(F)(F)CC3)n2)n1 [Compound 175, 2-((4,4-difluorocyclohexyl)amino)-6-(3,5-dimethyl-1H-pyrazol-1-yl)isonicotinamide] |

same assay, conditions: whole-cell patch-clamp, HEK293 cells expressing SK2 channels; concentration that increases the basal current by 100%

| SMILES | SC100 (μM) |
| --- | --- |
| CC(=O)c1cc(NC2CCC(F)(F)CC2)nc(-c2nc(C)cs2)c1 [IN11130-053-P1, 1-(2-((4,4-difluorocyclohexyl)amino)-6-(4-methylthiazol-2-yl)pyridin-4-yl) ethan-1-one] | +++ (+++ means <200 nM) |
| Cc1csc(-c2cc(OCc3ncnn3C)cc(NC3CCC(F)(F)CC3)n2)n1 [NSSy5695] | ++ (++ means 200 nM-1000 nM) |
| Cc1csc(-c2nc(NC3CCC(F)(F)CC3)cc(N3CC(F)(F)OC(F)(F)C3)n2)n1 [IN11030-032-P1] | +++ (+++ means <200 nM) |
| Cc1csc(-c2cc(N3CC(C)(O)C3)cc(NC3CCC(F)(F)CC3)n2)n1 [NSSy5687] | ++ (++ means 200 nM-1000 nM) |
| Cc1ccn(-c2nc(C(C)O)cc(N3CCCCCC3)n2)n1 (stereo not drawn) [IN10881-058-P1] | + (+ means >1 uM) |
| COC(=O)NCc1cc(NC2CCC(F)(F)CC2)nc(-n2ccc(CF)n2)c1 [NSSy5653, methyl ((2-((4,4-difluorocyclohexyl)amino)-6-(3-(fluoromethyl)-1H-pyrazol-1-yl)pyridin-4-yl)methyl)carbamate] | ++ (++ means 200 nM-1000 nM) |
| FCc1ccn(-c2nc(NC3CCC(F)(F)CC3)cc(OC3CC(F)C3)n2)n1 (stereo not drawn) [NSSy5618, N-(4,4-difluorocyclohexyl)-6-(3-fluorocyclobutoxy)-2-(3-(fluoromethyl)-1H-pyrazol-1-yl)pyrimidin-4-amine] | + (+ means >1 uM) |
| Cc1ccn(-c2nc(NC3CCC(F)CC3)cc(N3CC4(COC4)C3)n2)n1 (stereo not drawn) [NSSy5691] | + (+ means >1 uM) |
| COC(=O)N1CC(Oc2cc(NC3CCC(F)(F)CC3)nc(-n3ccc(F)n3)n2)C1 [NSSy6162] | ++ (++ means 200 nM-1000 nM) |
| Cc1ccn(-c2nc(NC3CCC(F)(F)CC3)cc(N3CCCOCC3)n2)n1 [IN11111-097-P1] | ++ (++ means 200 nM-1000 nM) |

Next, values leading:

| SC100 (μM) | SMILES |
| --- | --- |
| + (+ means >1 uM) | Cc1cc(NC2CCC(F)(F)CC2)nc(-n2ccc(OC(C)C)n2)n1 [IN11133-094-P1, N-(4,4-difluorocyclohexyl)-2-(3-isopropoxy-1H-pyrazol-1-yl)-6-methylpyrimidin-4-amine] |
| + (+ means >1 uM) | CC(=O)c1cc(NC2CCCCC2(F)F)nc(-c2nc(C)cs2)n1 (stereo not drawn) [IN11140-081-P1, 1-(6-((2,2-difluorocyclohexyl)amino)-2-(4-methylthiazol-2-yl)pyrimidin-4-yl) ethan-1-one] |
| ++ (++ means 200 nM-1000 nM) | Cc1csc(-c2nc(CN(C)C=O)cc(NC3CCC(F)(F)CC3)n2)n1 [IN11059-095-P1] |
| + (+ means >1 uM) | COc1c(NC2CCC(F)(F)CC2)nc(-c2nc(C)cs2)nc1N1CCOCC1 [IN11125-001-P1] |
| ++ (++ means 200 nM-1000 nM) | Cc1ccn(-c2cc(OCCN(C)C)nc(NC3CCC(F)(F)CC3)n2)n1 [NSSy6686] |
| ++ (++ means 200 nM-1000 nM) | Cc1csc(-c2nc(NC3CCC(F)(F)CC3)cc(N3CCN(C)C(CO)C3)n2)n1 (stereo not drawn) [IN10864-066-P1] |
| ++ (++ means 200 nM-1000 nM) | Cc1ccn(-c2nc(NC3CCC(F)(F)CC3)cc(N3CC4(COC4)C3)n2)n1 [NSSy5631] |
| ++ (++ means 200 nM-1000 nM) | COc1ccn(-c2nc(NC3CCC(F)(F)CC3)cc(N3CCOCC3)n2)n1 [NSSy6993] |
| + (+ means >1 uM) | FCc1ccn(-c2nc(NC3CCC(F)CC3)cc(N3CCOCC3)n2)n1 (stereo not drawn) |
